Source: patent US10464964B2, “Galactoside inhibitor of galectins” (Galecto Biotech AB, priority 2015, dated 2019)
Values after ≈ are worked out from the molar mass of the structure shown. Where two headings read alike, the source gives them in different places.

Experiments:
Solubility = assay type: physicochemical
galectin-3 = galectin-3 (Homo sapiens, UniProt P17931); test: fluorescence anisotropy assay, inhibition of galectin / fluorescein tagged saccharide probe interaction
Galectin 1 = Galectin 1 (Homo sapiens, UniProt P09382); test: as above
Galectin 1, sequence (P09382 whole entry): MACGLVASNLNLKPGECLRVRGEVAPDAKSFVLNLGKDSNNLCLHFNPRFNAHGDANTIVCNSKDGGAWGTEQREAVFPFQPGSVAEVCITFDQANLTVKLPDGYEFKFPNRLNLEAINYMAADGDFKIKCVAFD

galectins = conditions: cited from earlier work
[1] = aqueous buffer, 0.1 M phosphate buffer pH 6.5, read-out: Solubility buffer
[2] = water, read-out: Solubility water

galectin-3, sequence (P17931 whole entry): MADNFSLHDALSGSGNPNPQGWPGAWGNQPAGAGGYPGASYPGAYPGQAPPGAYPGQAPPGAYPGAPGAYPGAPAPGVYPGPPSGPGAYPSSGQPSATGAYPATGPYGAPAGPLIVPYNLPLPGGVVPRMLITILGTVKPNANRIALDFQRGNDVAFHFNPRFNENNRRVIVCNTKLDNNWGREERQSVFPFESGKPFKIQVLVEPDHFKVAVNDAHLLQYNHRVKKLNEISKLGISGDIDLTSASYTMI

SMILES	solubility (Solubility; [1])	solubility (Solubility; [2])	Kd (galectin-3)	Kd (Galectin 1)	affinity, times lower than lactose (galectins; relative to lactose)	Kd (galectins; all galectins)
OCC1O[C@@H](SC2O[C@H](CO)C(O)C(n3cc(-c4ccc(F)cn4)nn3)[C@H]2O)C(O)C(n2cc(-c3ccc(F)cn3)nn2)[C@H]1O (stereo in doubt) [Example S4a, 3,3′-Dideoxy-3,3′-bis-[4-(5-fluoro-2-pyridin-2-yl)-1H-1,2,3-triazol-1-yl]-1,1′-sulfanediyl-di-β-D-galactopyranoside]	2600 µg/mL (≈ 4000 µM)	4300 µg/mL (≈ 6610 µM)	0.01 µM	0.021 µM	–	–
Cn1cncc1-c1cn(C2C(O)[C@H](SC3O[C@H](CO)C(O)C(n4cc(-c5cncn5C)nn4)[C@H]3O)OC(CO)[C@@H]2O)nn1 (stereo in doubt) [Example S4c, 3,3′-Dideoxy-3,3′-bis-[4-(1-methyl-1H-imidazol-5-yl)-1H-1,2,3-triazol-1-yl]-1,1′-sulfanediyl-di-β-D-galactopyranoside]	–	–	0.131 µM	0.6 µM	–	–
OCC1O[C@@H](SC2O[C@H](CO)C(O)C(n3cc(-c4ncc(C(F)(F)F)cc4Cl)nn3)[C@H]2O)C(O)C(n2cc(-c3ncc(C(F)(F)F)cc3Cl)nn2)[C@H]1O (stereo in doubt) [Example S4d, 3,3′-Dideoxy-3,3′-bis-[4-(3-chloro-5-trifluoromethyl-pyridin-2-yl)-1H-1,2,3-triazol-1-yl]-1,1′-sulfanediyl-di-β-D-galactopyranoside]	200 µg/mL (≈ 244 µM)	–	0.025 µM	0.74 µM	–	–
OCC1O[C@@H](SC2O[C@H](CO)C(O)C(n3cc(-c4ccccn4)nn3)[C@H]2O)C(O)C(n2cc(-c3ccccn3)nn2)[C@H]1O (stereo in doubt) [Example S4f, 3,3′-Dideoxy-3,3′-bis-[4-(pyridin-2-yl)-1H-1,2,3-triazol-1-yl]-1,1′-sulfanediyl-di-β-D-galactopyranoside]	450 µg/mL (≈ 732 µM)	–	0.042 µM	0.21 µM	–	–
O=C[C@H](O)[C@@H](O)[C@@H](O)[C@H](O)CO [D-galactose]	–	–	–	–	50-100 times	–
COc1ccc(-c2cn(C3C(O)[C@@H](CO)OC(S[C@@H]4OC(CO)[C@H](O)[C@H](n5cc(-c6ccc(OC)nc6)nn5)C4O)[C@@H]3O)nn2)cn1 (stereo partly drawn) [Example S4b, 3,3′-Dideoxy-3,3′-bis-[4-(6-methoxypyridin-3-yl)-1H-1,2,3-triazol-1-yl]-1,1′-sulfanediyl-di-β-D-galactopyranoside]	–	–	0.012 µM	0.12 µM	–	–
OCC1O[C@@H](S[C@@H]2O[C@H](CO)C(O)C(n3cc(-c4cncnc4)nn3)[C@H]2O)C(O)[C@@H](n2cc(-c3cncnc3)nn2)[C@H]1O (stereo partly drawn) [Example S4e, 3,3′-Dideoxy-3,3′-bis-[4-(pyrimidin-5-yl)-1H-1,2,3-triazol-1-yl]-1,1′-sulfanediyl-di-β-D-galactopyranoside]	7 µg/mL (≈ 11.4 µM)	–	0.044 µM	0.39 µM	–	–
OCC1O[C@@H](SC2O[C@H](CO)C(O)C(n3cc(-c4cccc(F)c4)nn3)[C@H]2O)C(O)[C@@H](n2cc(-c3cccc(F)c3)nn2)[C@H]1O (stereo partly drawn) [Ref 1, 3,3′-bis-[4-(3-fluorophenyl)-1H-1,2,3-triazol-1-yl]-1,1′-sulfanediyl-di-β-D-galactopyranoside, reference compound]	–	400 µg/mL (≈ 617 µM)	–	–	–	–
OC[C@H]1O[C@@H](O[C@H]2[C@H](O)[C@@H](O)C(O)O[C@@H]2CO)[C@H](O)[C@@H](O)[C@H]1O (stereo partly shown) [lactose]	–	–	–	–	–	500 to 1000 µM

Further lines, with some results ahead:

solubility (Solubility; [1])	solubility (Solubility; [2])	Kd (galectin-3)	Kd (Galectin 1)	SMILES	affinity, times lower than lactose (galectins; relative to lactose)	Kd (galectins; all galectins)
–	–	< 0.005 µM	0.04 µM	OCC1O[C@@H](SC2O[C@H](CO)C(O)C(n3cc(-c4ccc(F)cn4)nn3)[C@H]2O)C(O)C(n2cc(-c3cc(F)c(F)c(F)c3)nn2)[C@H]1O (stereo in doubt) [Example S7, 3,3′-Dideoxy-3-[4-(5-fluoropyridin-2-yl)-1H-1,2,3-triazol-1-yl]-3′-[4-(3,4,5-trifluorophenyl)-1H-1,2,3-triazol-1-yl]-1,1′-sulfanediyl-di-β-D-galactopyranoside]	–	–
41 µg/mL (≈ 61.4 µM)	–	0.002 µM	0.038 µM	OCC1O[C@@H](SC2O[C@H](CO)C(O)C(n3cc(-c4cccnc4)nn3)[C@H]2O)C(O)C(n2cc(-c3cc(F)c(F)c(F)c3)nn2)[C@H]1O (stereo in doubt) [Example S8a, 3,3′-3-[4-(pyridin-3-yl)-1H-1,2,3-triazol-1-yl]-3′-[4-(3,4,5-trifluorophenyl)-1H-1,2,3-triazol-1-yl]-1,1′-sulfanediyl-di-β-D-galactopyranoside]	–	–
360 µg/mL (≈ 538 µM)	–	< 0.002 µM	0.08 µM	OCC1O[C@@H](SC2O[C@H](CO)C(O)C(n3cc(-c4cncnc4)nn3)[C@H]2O)C(O)C(n2cc(-c3cc(F)c(F)c(F)c3)nn2)[C@H]1O (stereo in doubt) [Example S8b, 3,3′-Dideoxy-3-[4-(1,3-pyrimidin-5-yl)-1H-1,2,3-triazol-1-yl]-3′-[4-(3,4,5-trifluorophenyl)-1H-1,2,3-triazol-1-yl]-1,1′-sulfanediyl-di-β-D-galactopyranoside]	–	–
4600 µg/mL (≈ 6880 µM)	–	< 0.002 µM	0.07 µM	OCC1O[C@@H](SC2O[C@H](CO)C(O)C(n3cc(-c4ncccn4)nn3)[C@H]2O)C(O)C(n2cc(-c3cc(F)c(F)c(F)c3)nn2)[C@H]1O (stereo in doubt) [Example S8c, 3,3′-Dideoxy-3-[4-(1,3-pyrimidin-2-yl)-1H-1,2,3-triazol-1-yl]-3′-[4-(3,4,5-trifluorophenyl)-1H-1,2,3-triazol-1-yl]-1,1′-sulfanediyl-di-β-D-galactopyranoside]	–	–
1400 µg/mL (≈ 2100 µM)	–	0.001 µM	0.038 µM	OCC1O[C@@H](SC2O[C@H](CO)C(O)C(n3cc(-c4ccccn4)nn3)[C@H]2O)C(O)C(n2cc(-c3cc(F)c(F)c(F)c3)nn2)[C@H]1O (stereo in doubt) [Example S8d, 3,3′-Dideoxy-3-[4-(pyridin-2-yl)-1H-1,2,3-triazol-1-yl]-3′-[4-(3,4,5-trifluorophenyl)-1H-1,2,3-triazol-1-yl]-1,1′-sulfanediyl-di-β-D-galactopyranoside]	–	–
1300 µg/mL (≈ 1950 µM)	–	0.001 µM	0.072 µM	OCC1O[C@@H](SC2O[C@H](CO)C(O)C(n3cc(-c4ccncc4)nn3)[C@H]2O)C(O)C(n2cc(-c3cc(F)c(F)c(F)c3)nn2)[C@H]1O (stereo in doubt) [Example S8e, 3,3′-Dideoxy-3-[4-(pyridin-4-yl)-1H-1,2,3-triazol-1-yl]-3′-[4-(3,4,5-trifluorophenyl)-1H-1,2,3-triazol-1-yl]-1,1′-sulfanediyl-di-β-D-galactopyranoside]	–	–
770 µg/mL (≈ 1060 µM)	–	0.005 µM	0.149 µM	CC(=O)Nc1ccc(-c2cn(C3C(O)[C@@H](CO)OC(S[C@@H]4OC(CO)[C@H](O)C(n5cc(-c6cc(F)c(F)c(F)c6)nn5)C4O)[C@@H]3O)nn2)cn1 (stereo in doubt) [Example S8f, 3-[4-((2-acetamid-N-yl)-pyridin-5-yl)-3,3′-dideoxy-1H-1,2,3-triazol-1-yl]-3′-[4-(3,4,5-trifluorophenyl)-1H-1,2,3-triazol-1-yl]-1,1′-sulfanediyl-di-β-D-galactopyranoside]	–	–
1800 µg/mL (≈ 2640 µM)	–	< 0.002 µM	0.034 µM	Nc1ccc(-c2cn(C3C(O)[C@@H](CO)OC(S[C@@H]4OC(CO)[C@H](O)C(n5cc(-c6cc(F)c(F)c(F)c6)nn5)C4O)[C@@H]3O)nn2)cn1 (stereo in doubt) [Example S8g, 3-[4-(2-aminopyridin-5-yl)-3,3′-dideoxy-1H-1,2,3-triazol-1-yl]-3′-[4-(3,4,5-trifluorophenyl)-1H-1,2,3-triazol-1-yl]-1,1′-sulfanediyl-di-β-D-galactopyranoside]	–	–
3300 µg/mL (≈ 4810 µM)	–	< 0.002 µM	0.055 µM	OCC1O[C@@H](SC2O[C@H](CO)C(O)C(n3cc(-c4ncc(F)cn4)nn3)[C@H]2O)C(O)C(n2cc(-c3cc(F)c(F)c(F)c3)nn2)[C@H]1O (stereo in doubt) [Example S8h, 3,3′-Dideoxy-3-[4-(5-fluoro-1,3-pyrimidin-2-yl)-1H-1,2,3-triazol-1-yl]-3′-[4-(3,4,5-trifluorophenyl)-1H-1,2,3-triazol-1-yl]-1,1′-sulfanediyl-di-β-D-galactopyranoside]	–	–
